Measurements: ChEMBL document CHEMBL1152560, “Substituted 2-arylbenzothiazoles as kinase inhibitors: hit-to-lead optimization” (Bioorg Med Chem, 2009)

Key:
[1] = tested on: Epidermal growth factor receptor (Homo sapiens), P00533 [L858R]; assay: Residual activity of EGFR L858R mutant at 1 uM by microplate scintillation counting
[2] = target: T1, Tyrosine-protein kinase Tec (Homo sapiens) (UniProt P42680); assay: Residual activity of TEC at 1 uM by microplate scintillation counting
T1 sequence (whole entry): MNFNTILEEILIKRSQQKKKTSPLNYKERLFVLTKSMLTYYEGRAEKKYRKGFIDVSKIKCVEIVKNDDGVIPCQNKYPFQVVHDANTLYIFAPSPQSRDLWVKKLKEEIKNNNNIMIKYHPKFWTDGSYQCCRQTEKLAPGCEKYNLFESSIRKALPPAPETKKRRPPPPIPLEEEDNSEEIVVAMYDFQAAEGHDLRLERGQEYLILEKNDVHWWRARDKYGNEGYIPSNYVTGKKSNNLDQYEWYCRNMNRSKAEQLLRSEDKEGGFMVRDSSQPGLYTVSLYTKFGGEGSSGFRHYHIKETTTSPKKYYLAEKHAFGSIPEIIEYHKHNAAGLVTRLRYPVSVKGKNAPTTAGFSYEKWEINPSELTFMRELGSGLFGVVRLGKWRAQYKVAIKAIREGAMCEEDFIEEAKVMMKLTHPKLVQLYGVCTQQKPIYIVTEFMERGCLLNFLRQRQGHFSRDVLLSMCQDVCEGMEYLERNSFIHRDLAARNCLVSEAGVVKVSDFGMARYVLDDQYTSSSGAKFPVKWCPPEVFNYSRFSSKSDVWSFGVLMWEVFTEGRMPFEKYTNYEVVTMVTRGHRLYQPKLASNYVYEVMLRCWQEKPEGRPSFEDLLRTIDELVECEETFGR

[3] = target: Dual specificity tyrosine-phosphorylation-regulated kinase 1B (Homo sapiens) (UniProt Q9Y463); assay: Residual activity of DYRK1B at 10 uM by microplate scintillation counting
[4] = target: T2, Ephrin type-A receptor 3 (Homo sapiens) (UniProt P29320); assay: Residual activity of EPHA3 at 0.1 uM by microplate scintillation counting
T2 sequence (whole entry): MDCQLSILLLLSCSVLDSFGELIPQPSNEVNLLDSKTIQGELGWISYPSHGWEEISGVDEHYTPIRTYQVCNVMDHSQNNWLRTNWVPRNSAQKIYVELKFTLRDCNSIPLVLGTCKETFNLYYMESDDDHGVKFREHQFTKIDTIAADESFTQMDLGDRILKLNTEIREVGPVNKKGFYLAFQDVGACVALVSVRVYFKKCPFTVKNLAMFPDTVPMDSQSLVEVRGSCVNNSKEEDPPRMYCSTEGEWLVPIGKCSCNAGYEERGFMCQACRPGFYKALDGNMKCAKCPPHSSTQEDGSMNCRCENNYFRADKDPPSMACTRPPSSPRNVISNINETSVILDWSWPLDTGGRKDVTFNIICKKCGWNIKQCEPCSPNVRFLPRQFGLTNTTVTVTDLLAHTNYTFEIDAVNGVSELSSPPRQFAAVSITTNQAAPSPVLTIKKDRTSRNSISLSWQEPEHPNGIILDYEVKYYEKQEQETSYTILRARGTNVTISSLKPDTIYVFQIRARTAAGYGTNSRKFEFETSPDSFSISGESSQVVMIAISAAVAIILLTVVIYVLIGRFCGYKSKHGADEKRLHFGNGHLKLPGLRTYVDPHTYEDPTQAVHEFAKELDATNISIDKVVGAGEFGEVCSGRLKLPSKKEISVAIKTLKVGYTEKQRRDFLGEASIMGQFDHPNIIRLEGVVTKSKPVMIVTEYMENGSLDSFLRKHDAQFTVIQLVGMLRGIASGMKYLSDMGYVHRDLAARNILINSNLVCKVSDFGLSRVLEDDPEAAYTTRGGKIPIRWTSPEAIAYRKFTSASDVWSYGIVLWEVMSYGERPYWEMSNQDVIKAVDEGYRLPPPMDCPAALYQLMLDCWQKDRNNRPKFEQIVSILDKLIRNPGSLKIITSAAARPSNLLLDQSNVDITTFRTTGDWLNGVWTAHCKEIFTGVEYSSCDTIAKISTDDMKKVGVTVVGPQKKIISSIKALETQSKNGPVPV

[5] = target: T3, Serine/threonine-protein kinase 4 (Homo sapiens) (UniProt Q13043); assay: Residual activity of MST1 at 10 uM by microplate scintillation counting
T3 sequence (whole entry): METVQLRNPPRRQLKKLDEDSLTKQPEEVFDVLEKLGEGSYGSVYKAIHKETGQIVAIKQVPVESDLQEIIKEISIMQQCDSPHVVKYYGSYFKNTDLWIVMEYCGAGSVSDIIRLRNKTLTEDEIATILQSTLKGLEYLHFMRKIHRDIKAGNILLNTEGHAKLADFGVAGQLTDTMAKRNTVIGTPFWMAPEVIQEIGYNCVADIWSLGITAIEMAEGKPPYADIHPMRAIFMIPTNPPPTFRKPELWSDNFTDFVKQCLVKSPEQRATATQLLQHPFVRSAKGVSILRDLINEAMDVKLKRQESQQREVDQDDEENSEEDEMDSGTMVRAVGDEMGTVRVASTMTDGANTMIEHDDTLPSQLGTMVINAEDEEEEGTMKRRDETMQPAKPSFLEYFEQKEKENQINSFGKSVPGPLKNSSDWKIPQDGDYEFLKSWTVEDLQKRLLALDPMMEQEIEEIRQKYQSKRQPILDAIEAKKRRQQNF

[6] = target: T4, Protein kinase C iota type (Homo sapiens) (UniProt P41743); assay: Residual activity of PKCiota at 10 uM by microplate scintillation counting
T4 sequence (whole entry): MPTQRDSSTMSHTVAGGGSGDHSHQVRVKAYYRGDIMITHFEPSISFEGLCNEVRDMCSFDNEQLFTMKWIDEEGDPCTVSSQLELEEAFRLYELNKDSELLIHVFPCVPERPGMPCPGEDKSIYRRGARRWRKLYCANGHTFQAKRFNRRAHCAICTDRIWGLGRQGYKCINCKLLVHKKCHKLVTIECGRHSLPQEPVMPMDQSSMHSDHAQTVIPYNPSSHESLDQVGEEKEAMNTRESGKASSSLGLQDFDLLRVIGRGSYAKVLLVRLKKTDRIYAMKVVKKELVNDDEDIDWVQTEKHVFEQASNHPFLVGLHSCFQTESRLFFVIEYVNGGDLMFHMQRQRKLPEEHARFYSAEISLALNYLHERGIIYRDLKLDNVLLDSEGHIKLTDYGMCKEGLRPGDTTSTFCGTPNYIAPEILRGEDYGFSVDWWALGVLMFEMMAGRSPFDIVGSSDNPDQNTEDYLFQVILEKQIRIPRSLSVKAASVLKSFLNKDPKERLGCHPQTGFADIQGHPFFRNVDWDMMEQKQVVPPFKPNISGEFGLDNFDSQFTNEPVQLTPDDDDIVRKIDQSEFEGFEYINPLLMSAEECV

[7] = target: T4, Protein kinase C iota type (Homo sapiens); assay: Residual activity of PKCiota at 0.1 uM by microplate scintillation counting
[8] = target: Proto-oncogene tyrosine-protein kinase ROS (Homo sapiens) (UniProt P08922); assay: Residual activity of ROS at 0.1 uM by microplate scintillation counting
Chain of Proto-oncogene tyrosine-protein kinase ROS (Homo sapiens) (P08922 whole entry): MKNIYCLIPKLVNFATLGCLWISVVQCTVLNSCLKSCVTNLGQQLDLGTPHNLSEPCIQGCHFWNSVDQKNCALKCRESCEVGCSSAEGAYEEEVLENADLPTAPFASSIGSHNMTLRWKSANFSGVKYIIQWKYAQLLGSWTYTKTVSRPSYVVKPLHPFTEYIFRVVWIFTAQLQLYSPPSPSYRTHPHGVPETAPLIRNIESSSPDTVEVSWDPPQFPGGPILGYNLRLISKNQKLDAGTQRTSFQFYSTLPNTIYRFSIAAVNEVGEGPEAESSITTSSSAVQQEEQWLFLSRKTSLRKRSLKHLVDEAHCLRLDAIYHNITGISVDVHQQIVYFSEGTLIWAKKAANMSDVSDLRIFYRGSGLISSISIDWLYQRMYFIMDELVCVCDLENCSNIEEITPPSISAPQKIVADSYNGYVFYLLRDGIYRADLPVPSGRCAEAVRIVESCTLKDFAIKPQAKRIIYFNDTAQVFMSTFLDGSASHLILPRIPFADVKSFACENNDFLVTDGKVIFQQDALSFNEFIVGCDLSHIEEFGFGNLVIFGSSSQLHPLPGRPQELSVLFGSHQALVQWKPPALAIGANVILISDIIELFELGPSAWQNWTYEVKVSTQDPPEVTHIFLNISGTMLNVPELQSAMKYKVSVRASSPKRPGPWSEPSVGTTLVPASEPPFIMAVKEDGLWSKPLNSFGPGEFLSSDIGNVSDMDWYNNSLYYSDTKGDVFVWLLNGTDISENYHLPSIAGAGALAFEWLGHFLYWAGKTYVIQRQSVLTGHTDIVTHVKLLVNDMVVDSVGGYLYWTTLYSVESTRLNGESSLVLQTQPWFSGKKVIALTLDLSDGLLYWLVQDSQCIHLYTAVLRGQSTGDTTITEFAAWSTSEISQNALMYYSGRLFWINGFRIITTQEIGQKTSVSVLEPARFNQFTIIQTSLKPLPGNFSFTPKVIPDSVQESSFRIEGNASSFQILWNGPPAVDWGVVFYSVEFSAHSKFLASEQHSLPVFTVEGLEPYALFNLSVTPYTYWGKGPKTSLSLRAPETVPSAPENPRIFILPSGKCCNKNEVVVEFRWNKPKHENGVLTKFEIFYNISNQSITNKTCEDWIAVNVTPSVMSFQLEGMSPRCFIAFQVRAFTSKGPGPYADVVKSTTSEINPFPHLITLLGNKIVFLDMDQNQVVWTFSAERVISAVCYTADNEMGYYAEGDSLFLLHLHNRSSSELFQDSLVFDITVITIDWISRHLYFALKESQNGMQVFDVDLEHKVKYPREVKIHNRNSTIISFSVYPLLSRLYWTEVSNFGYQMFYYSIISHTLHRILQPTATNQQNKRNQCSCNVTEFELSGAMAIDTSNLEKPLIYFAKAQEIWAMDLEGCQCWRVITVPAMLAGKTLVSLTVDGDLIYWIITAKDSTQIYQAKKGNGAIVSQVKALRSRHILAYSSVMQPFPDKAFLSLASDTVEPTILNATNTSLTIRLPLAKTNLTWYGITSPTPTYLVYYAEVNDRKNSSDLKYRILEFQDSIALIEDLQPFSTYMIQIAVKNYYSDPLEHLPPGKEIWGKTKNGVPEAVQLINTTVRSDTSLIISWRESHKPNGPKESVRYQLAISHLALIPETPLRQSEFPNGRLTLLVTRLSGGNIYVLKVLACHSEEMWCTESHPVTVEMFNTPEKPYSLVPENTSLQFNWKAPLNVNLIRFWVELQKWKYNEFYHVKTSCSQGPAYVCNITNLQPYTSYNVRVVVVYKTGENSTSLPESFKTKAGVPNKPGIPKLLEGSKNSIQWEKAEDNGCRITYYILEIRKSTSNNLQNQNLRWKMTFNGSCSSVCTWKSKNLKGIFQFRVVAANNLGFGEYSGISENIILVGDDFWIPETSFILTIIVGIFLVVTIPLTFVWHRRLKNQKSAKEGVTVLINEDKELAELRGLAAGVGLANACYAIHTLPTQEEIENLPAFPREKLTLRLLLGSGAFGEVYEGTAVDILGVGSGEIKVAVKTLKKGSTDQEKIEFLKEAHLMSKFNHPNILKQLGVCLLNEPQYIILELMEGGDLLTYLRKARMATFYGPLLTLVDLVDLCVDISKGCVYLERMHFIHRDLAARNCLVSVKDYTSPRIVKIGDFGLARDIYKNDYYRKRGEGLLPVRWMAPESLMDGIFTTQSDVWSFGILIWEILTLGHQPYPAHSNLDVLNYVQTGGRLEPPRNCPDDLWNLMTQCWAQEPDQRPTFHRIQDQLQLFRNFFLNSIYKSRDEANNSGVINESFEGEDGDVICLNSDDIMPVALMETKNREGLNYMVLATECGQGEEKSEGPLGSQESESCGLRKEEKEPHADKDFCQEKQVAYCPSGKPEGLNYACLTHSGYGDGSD

Chain of Dual specificity tyrosine-phosphorylation-regulated kinase 1B (Homo sapiens) (Q9Y463 whole entry, looked up): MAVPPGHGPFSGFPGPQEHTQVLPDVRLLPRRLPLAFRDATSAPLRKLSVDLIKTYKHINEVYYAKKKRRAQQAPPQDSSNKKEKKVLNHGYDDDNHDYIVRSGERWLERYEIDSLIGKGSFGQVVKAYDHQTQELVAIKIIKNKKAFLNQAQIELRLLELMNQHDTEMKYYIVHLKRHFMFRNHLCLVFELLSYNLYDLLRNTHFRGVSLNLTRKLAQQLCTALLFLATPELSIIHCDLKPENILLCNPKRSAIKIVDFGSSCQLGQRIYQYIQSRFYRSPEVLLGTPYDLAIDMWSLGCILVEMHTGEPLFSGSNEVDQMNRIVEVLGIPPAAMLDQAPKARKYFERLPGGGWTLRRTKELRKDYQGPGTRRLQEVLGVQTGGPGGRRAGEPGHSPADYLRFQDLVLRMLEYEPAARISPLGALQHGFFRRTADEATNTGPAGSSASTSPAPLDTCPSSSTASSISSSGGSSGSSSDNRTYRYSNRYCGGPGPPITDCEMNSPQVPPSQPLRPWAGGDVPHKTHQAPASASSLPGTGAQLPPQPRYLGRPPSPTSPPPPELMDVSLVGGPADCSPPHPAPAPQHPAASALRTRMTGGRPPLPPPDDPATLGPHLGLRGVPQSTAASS

residual activity [1] [%] | residual activity [2] [%] | residual activity [3] [%] | residual activity [4] [%] | residual activity [5] [%] | residual activity [6] [%] | residual activity [7] [%] | residual activity [8] [%] | Structure (SMILES)
72 | 93 | 136 | 104 | 30 | 51 | 102 | 84 | COc1cc2c(Oc3ccc(-c4nc5ccccc5s4)cc3)ncnc2cc1OCCCN1CCCC1
80 | 90 | 194 | 106 | 26 | 46 | 87 | 98 | COc1cc2c(Oc3ccc(-c4nc5ccccc5s4)cc3F)ncnc2cc1OCCCN1CCN(C)CC1
63 | 96 | 224 | 92 | 23 | 44 | 105 | 91 | COc1cc2c(Oc3ccc(-c4nc5ccccc5s4)cc3)ncnc2cc1OCCCN1CCN(C)CC1
